Experimental data as given in patent publication US4603132A, “Phenothiazine compounds with anti-bronchospastic activity and pharmaceutical compositions containing them” (priority 1984, dated 1986).
Where two headings read alike, the source gives them in different places.

Assays:
[1] = system: bronchial asthma; details: literature, in words; cited from earlier work
[2] = system: isolated ileum of guinea pig (PGF2 alpha); experiment: spasm induced by PGF2 alpha in the isolated ileum of guinea pig
[3] = system: bronchospasm induced by histamine aerosol; details: for ED50: Cavia porcellus, iv
[4] = system: bronchospasm induced by ACh aerosol; details: for activity in bronchospasm induced by ACh aerosol: awake guinea pig, in words, i.v. in b22, mequitazine at doses up to 20 times higher or essentially subtoxic
[5] = system: isolated trachea of guinea pig (methacholine); details: for IC50: Cavia porcellus; for activity greater than mequitazine: isolated guinea pig trachea, methacholine
[6] = system: hypotension induced by ACh i.v.; experiment: inhibition of the hypotension induced by ACh i.v. in the anestetized rat (systemic effect; absorption by inhalation); assay type: in vivo; details: for absorption through inhalatory route: i.v. vs inhalation, in words
Excerpt: The absorption of compound (I) by inhalation in comparison with mequitazine has been studied by comparing their sistemic effects with intravenous and inhalatory routes. The inhibiting effect of the tested compounds on the hypotension induced by ACh i.v. in the anestetized rat has been used.

[7] = system: isolated ileum of guinea pig (histamine); experiment: spasm induced by histamine in the isolated ileum of guinea pig
[8] = acute toxicity test in the mouse; assay type: in vivo; details: for LD50: in vivo
[9] = system: isolated trachea of guinea pig (histamine); experiment: spasm induced by histamine in the isolated trachea of guinea pig; details: for IC50: Cavia porcellus
[10] = system: bronchospasm; experiment: anti-bronchospastic activity (general statement); details: in words
[11] = system: isolated ileum of guinea pig (ACh); experiment: spasm induced by ACh in the isolated ileum of guinea pig
[12] = system: isolated trachea of guinea pig (KCl); experiment: spasm induced by KCl in the isolated trachea of guinea pig; details: for IC50: Cavia porcellus
[13] = system: bronchospasm induced by ACh i.v.; details: for ED50: Cavia porcellus, iv, anestetized guinea pig, ACh i.v.
[14] = system: isolated ileum of guinea pig (serotonine); experiment: spasm induced by serotonine in the isolated ileum of guinea pig
[15] = system: H1 receptors; details: literature, in words, cited from earlier work
[16] = listed as 3-(10-H-phenothiazin-methyl)-1-methyl-1-azoniabicyclo[2.2.2]-octane iodide
[17] = vs classic anti-histaminic drugs

Structure (SMILES)	effect in bronchial asthma / bronchial hyperreactivity [1]	ED50 [3] [µmol/kg]	IC50 [5] [µM]	absorption through inhalatory route ([6]; anestetized rat)	LD50 ([8]; iv) [mg/kg]	LD50 ([8]; oral route) [mg/kg]	IC50 [9] [µM]	anti-bronchospastic activity [10]	IC50 [12] [µM]	ED50 ([13]; compound by inhalatory route) [µmol/kg]	ED50 ([13]; compound by venous route) [µmol/kg]	other results
COc1ccc(CN(CCN(C)C)c2ccccn2)cc1 [mepyramine]	singularly inefficacious in the bronchial asthma											
CC(CN1c2ccccc2Sc2ccccc21)N(C)C (centres unmarked) [promethazine]	singularly inefficacious in the bronchial asthma											
C[N+]12CCC(CC1)C(CN1c3ccccc3Sc3ccccc31)C2 (centres unmarked) [compound (I), 3-(10-H-phenothiazin-methyl)-1-methyl-1-azoniabicyclo[2.2.2]-octane iodide]		0.12	0.034	very poorly absorbed	3.15	~700	0.074	powerful anti-bronchospastic activity	38	0.026	0.051	times more active than mequitazine [2]: 2 times; activity higher than that of mequitazine ([3]; awake guinea pig, histamine aerosol, i.v.): about 5 times; ED50 ([4]; Cavia porcellus, iv): 0.41 µmol/kg; activity in bronchospasm induced by ACh aerosol [4]: intense and dose-dependent activity; activity in bronchospasm induced by ACh aerosol [4, 16]: remarkable power; activity greater than mequitazine [5]: 1200 times; activity greater than mequitazine [5, 16]: 1000 times; ED50 ([6]; Rattus norvegicus, iv): 1.17 µmol/kg; absorption lower than that of mequitazine ([6]; inhalatory route): at least 24 times; ED50 ([6]; inhibition of hypotension, anestetized rat, inhalatory administration): can not be calculated (25 μmol/kg); times more active than mequitazine [7]: 15 times; absorption by oral route ([8]; inferred from i.v. vs oral LD 50, in words): very modest; activity greater than mequitazine ([9]; isolated guinea pig trachea, histamine): 50 times; times more active than mequitazine [11]: 7 times; activity greater than mequitazine ([12]; isolated guinea pig trachea, KCl): 3 times; anti-bronchospastic activity higher than that of mequitazine ([13]; inhalatory route): 20 times; activity higher than that of mequitazine ([13]; venous route): 13 times; times more active than mequitazine [14]: 6 times
c1ccc2c(c1)Sc1ccccc1N2CC1CN2CCC1CC2 (centres unmarked) [mequitazine, reference compound]	protective action	0.65	40	complete absorption	23.7	~350	3.7	very slightly active or even inactive	110	0.499	0.674	ED50 ([6]; inhaled or nasal, inhibition of hypotension, anestetized rat, inhalatory administration, read-out: ED 50): 4.06 µmol/kg; ED50 ([6]; iv, inhibition of hypotension, anestetized rat, i.v. route, read-out: ED 50): 4.01 µmol/kg; action on H1 receptors [15]: histamine antagonism at the level of the H1 receptors; duration of action [15, 17]: long lasting action; side effects of the CNS level [15, 17]: scarcity of side effects
CN(C)CCC(c1ccc(Cl)cc1)c1ccccn1 (centres unmarked) [clopheniramine]	singularly inefficacious in the bronchial asthma											
